Experimental data: ChEMBL document CHEMBL5380790 (J Med Chem, 2023)
In brackets after ≈: the same amount, converted by molar mass. Activity calls are given as the source filed them. The calls are words filed in the database; no cut-off is given here.

Assays:
[1] = Octanol-water distribution coefficient, logD of the compound at pH 7.4; type: physicochemical
[2] = Efflux ratio of apparent permeability from basolateral to apical side over apical to basolateral side in human Caco-2 cells at 1 uM and measured after 2 hrs by LC-MS/MS analysis; type: ADME, cell-based
[3] = Metabolic stability in human hepatocytes assessed as intrinsic clearance measured per million cells; type: ADME, cell-based, Hepatocyte; settings: read-out: CLH
[4] = target: Mast/stem cell growth factor receptor Kit (Homo sapiens, UniProt P10721, DELTA560/V654A); type: cell-based, GIST-430/654
Chain of Mast/stem cell growth factor receptor Kit (Homo sapiens, UniProt P10721, DELTA560/V654A) (P10721 whole entry, looked up, stated change not applied): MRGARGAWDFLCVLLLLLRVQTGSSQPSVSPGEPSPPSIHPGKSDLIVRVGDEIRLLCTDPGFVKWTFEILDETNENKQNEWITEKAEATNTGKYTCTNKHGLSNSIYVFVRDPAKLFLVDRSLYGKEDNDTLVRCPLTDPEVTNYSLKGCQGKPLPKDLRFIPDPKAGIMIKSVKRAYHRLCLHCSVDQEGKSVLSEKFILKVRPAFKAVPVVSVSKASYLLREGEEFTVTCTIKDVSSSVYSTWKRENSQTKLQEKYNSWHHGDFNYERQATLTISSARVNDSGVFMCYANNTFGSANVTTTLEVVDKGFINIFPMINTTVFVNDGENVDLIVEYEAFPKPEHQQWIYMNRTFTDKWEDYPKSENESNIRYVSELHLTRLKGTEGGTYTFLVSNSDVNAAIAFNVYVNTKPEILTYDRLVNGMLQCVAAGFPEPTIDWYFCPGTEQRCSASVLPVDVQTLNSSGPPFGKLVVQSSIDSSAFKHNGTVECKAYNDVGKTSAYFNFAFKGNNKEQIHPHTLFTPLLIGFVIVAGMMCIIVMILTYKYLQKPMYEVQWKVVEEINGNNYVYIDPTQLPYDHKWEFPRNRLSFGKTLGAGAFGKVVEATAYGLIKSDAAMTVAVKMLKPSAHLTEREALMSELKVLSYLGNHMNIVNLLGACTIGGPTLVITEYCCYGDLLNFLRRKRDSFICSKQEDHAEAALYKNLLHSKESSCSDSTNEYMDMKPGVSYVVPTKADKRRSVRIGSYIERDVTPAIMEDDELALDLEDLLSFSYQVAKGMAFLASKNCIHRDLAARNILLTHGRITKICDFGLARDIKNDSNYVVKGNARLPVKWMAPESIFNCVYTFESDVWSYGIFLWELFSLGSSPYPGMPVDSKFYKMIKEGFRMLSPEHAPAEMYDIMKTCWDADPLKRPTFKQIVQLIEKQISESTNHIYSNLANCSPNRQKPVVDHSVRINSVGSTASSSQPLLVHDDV

[5] = Apparent passive permeability of compound in human Caco-2 cells at 1 uM and measured after 2 hrs by LC-MS/MS analysis; type: ADME, cell-based
[6] = Metabolic stability in human liver microsomes assessed as intrinsic clearance in presence of NADPH by UPLC analysis; type: ADME, Microsome; settings: read-out: CLH
[7] = Kinetic solubility of compound in PBS buffer at pH 7.4 and measured after 2 hrs by HPLC-UV analysis; type: physicochemical; settings: read-out: Kinetic_solubility
[8] = Metabolic stability in mouse liver microsomes assessed as intrinsic clearance in presence of NADPH by UPLC analysis; type: ADME, Microsome; settings: read-out: CLH
[9] = target: Mast/stem cell growth factor receptor Kit (Homo sapiens, UniProt P10721, V654A); assay: Inhibition of recombinant human KIT V654A mutant using polyGT and ATP as substrate preincubated for 20 mins followed by substrate addition and measured after 240 mins by FRET assay
Chain of Mast/stem cell growth factor receptor Kit (Homo sapiens, UniProt P10721, V654A) (P10721 26-976 V654A limits assumed): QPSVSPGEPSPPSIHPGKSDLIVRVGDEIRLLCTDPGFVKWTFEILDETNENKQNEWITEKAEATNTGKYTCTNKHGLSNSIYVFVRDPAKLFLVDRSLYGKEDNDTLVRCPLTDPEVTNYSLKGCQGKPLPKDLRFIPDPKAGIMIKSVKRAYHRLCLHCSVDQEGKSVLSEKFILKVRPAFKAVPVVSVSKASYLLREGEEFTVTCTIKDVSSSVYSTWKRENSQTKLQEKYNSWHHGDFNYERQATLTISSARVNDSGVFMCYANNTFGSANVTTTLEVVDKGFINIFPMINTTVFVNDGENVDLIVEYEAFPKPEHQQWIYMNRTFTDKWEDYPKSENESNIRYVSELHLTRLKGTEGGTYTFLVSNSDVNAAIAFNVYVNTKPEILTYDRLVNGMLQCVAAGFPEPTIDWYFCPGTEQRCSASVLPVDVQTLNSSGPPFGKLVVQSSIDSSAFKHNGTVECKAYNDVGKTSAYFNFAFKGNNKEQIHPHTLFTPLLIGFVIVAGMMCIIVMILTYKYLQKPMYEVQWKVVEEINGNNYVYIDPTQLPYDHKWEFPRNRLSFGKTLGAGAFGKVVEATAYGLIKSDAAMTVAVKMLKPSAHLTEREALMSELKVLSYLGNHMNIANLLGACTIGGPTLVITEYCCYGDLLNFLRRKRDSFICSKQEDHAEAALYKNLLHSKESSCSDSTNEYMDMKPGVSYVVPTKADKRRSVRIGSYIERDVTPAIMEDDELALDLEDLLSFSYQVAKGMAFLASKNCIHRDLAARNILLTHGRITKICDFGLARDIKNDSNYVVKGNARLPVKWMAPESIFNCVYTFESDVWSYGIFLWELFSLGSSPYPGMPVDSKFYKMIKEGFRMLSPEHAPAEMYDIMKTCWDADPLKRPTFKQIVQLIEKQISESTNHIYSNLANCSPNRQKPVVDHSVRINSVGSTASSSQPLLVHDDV

[10] = Solubility of compound in FaSSIF at pH 6.5; type: physicochemical
[11] = Dissociation constant, pKa of the compound; type: physicochemical
[12] = target: hERG (KCNH2) potassium channel (Homo sapiens, UniProt Q12809); assay: Inhibition of human ERG potassium channel transfected in HEK293 cells at holding potential -80 mV at 10 uM and measured for 5 mins by whole cell patch clamp assay; type: toxicity, cell-based; settings: HEK293 cells transfected with hERG
Chain of hERG (KCNH2) potassium channel (Q12809 whole entry): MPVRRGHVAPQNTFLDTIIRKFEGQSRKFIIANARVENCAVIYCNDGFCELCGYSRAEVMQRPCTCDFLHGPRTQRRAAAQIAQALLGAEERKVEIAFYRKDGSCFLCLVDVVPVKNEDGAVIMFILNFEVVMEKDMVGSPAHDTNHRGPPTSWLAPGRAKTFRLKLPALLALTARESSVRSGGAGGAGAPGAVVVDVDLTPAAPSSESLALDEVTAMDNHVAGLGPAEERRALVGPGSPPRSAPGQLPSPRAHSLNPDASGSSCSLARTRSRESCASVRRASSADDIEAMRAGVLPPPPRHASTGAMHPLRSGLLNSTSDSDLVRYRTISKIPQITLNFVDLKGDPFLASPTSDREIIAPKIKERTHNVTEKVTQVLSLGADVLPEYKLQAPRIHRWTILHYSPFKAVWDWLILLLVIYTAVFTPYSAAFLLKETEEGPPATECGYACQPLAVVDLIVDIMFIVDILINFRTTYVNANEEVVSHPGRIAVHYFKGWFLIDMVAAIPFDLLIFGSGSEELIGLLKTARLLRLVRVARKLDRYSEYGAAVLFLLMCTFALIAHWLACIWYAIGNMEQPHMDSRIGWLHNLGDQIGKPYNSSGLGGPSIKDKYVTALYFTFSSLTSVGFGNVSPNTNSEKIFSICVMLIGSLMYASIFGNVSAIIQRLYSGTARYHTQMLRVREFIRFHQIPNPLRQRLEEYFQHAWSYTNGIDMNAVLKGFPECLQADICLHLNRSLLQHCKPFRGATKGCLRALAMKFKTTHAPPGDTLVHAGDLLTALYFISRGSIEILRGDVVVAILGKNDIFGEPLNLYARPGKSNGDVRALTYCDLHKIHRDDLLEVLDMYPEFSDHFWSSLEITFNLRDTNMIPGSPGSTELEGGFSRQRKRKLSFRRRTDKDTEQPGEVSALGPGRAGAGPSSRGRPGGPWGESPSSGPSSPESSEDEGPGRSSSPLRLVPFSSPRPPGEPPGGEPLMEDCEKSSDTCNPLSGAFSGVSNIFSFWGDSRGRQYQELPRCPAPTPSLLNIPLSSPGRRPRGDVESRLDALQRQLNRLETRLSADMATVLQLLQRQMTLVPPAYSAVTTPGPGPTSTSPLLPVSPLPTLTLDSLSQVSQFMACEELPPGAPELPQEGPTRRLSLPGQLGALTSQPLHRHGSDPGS

[13] = Solubility of compound in simulated gastric fluid at pH 1.2; type: physicochemical
[14] = Solubility of compound in FeSSIF at pH 5.5; type: physicochemical
[15] = target: Receptor-type tyrosine-protein kinase FLT3 (Homo sapiens) (UniProt P36888); assay: Inhibition of FLT3 (unknown origin) at 1 uM using 33P-ATP as substrate incubated for 120 mins by radiometric kinase assay
Chain of Receptor-type tyrosine-protein kinase FLT3 (Homo sapiens) (P36888 whole entry): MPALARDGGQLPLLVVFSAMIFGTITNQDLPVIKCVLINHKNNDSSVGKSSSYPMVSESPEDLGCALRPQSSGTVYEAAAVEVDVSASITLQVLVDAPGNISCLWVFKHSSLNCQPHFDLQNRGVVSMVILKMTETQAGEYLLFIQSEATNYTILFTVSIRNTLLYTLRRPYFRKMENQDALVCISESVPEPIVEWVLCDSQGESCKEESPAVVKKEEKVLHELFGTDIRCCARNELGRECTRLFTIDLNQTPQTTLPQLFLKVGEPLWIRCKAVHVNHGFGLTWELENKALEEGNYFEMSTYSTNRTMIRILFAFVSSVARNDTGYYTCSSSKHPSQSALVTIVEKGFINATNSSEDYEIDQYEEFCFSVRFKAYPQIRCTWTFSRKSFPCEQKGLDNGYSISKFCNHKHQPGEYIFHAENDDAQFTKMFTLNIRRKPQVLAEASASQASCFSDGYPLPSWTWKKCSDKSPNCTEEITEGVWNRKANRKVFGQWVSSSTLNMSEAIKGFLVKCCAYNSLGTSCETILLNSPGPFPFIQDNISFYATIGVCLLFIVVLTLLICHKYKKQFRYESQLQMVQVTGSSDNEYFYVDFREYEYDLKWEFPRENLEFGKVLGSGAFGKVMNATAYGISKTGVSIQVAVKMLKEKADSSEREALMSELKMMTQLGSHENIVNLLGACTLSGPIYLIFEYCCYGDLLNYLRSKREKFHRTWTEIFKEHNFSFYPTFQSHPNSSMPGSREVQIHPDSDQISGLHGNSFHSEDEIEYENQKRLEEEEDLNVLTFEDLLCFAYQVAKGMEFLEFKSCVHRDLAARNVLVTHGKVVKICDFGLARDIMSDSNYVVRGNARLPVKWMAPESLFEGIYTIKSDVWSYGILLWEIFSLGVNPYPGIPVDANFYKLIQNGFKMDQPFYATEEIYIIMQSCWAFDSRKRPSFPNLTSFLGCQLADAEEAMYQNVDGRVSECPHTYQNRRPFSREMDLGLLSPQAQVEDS

Row | Structure (SMILES) | logD [1] | efflux ratio at 2 h, 1 µM [2] | hepatocyte CLint [3] | IC50 [4] | Papp at 2 h, 1 µM [5] | microsomal CLint [6] | solubility kinetic at 2 h [7] | microsomal CLint [8] | IC50 [9] | solubility [10] | pKa [11] | solubility [13] | solubility [14] | inhibition [15] | inhibition at 5 min, 10 µM [12]
1 | CN1CCN(CCOc2ccn3c(-c4cncc(NCc5ccc(N6CCCC6)nc5)c4)cnc3c2)CC1 | – | – | – | 290 nM | – | 10 µL/min/mg | 100 µM (≈ 51.3 µg/mL) | > 75 µL/min/mg | 11 nM | – | – | – | – | – | –
2 | Cc1nc(-c2ccc(CNc3cc(-c4cnc5cc(OCCN6CCC(=O)N(C)CC6)ccn45)ncn3)cc2)co1 | 3.2 | 7.5 | 6 µL/min/1e6 cells | 54 nM | 7.6 ×10⁻⁶ cm/s | – | – | – | – | 10 µg/mL (≈ 18.1 µM) | 6.3 | – | – | – | -7%
3 | COCCOc1ccn2c(-c3cncc(NCc4ccc(N5CCCC5)nc4)c3)cnc2c1 | – | – | – | 110 nM | – | > 75 µL/min/mg | 9 µM (≈ 4 µg/mL) | > 75 µL/min/mg | 12 nM | – | – | – | – | – | –
4 | c1ccn2c(-c3nccc(NCC4CCN(C5CCCC5)CC4)n3)cnc2c1 | – | – | – | – | – | 10 µL/min/mg | – | > 75 µL/min/mg | > 10000 nM | – | – | – | – | – | –
5 | c1ccc2ncc(CNc3cncc(-c4cnc5ccccn45)c3)cc2c1 | – | – | – | – | – | 10 µL/min/mg | – | 10 µL/min/mg | > 10000 nM | – | – | – | – | – | –
6 | COc1ccn2c(-c3cncc(NCc4ccc(N5CCCC5)nc4)c3)cnc2c1 | – | – | – | 300 nM | – | > 75 µL/min/mg | 81 µM (≈ 32.4 µg/mL) | > 75 µL/min/mg | 13 nM | – | – | – | – | – | –
7 | c1ccc(-c2ccc(CNc3ccnc(-c4cnc5ccccn45)n3)cc2)cc1 | – | – | – | 340 nM | – | 10 µL/min/mg | < 3 µM | 10 µL/min/mg | 15 nM | – | – | – | – | – | –
8 | CN(Cc1ccc(N2CCCC2)nc1)c1cncc(-c2cnc3ccccn23)c1 | – | – | – | – | – | – | 8 µM (≈ 3.08 µg/mL) | – | 240 nM | – | – | – | – | – | –
9 | c1ccn2c(-c3cc(NCc4ccc(N5CCCC5)nc4)ncn3)cnc2c1 | – | – | – | 429 nM | – | 10 µL/min/mg | < 3 µM | > 75 µL/min/mg | – | – | – | – | – | – | –
10 | c1ccn2c(-c3nccc(NCc4ccc(N5CCCC5)cc4)n3)cnc2c1 | – | – | – | 680 nM | – | – | 7 µM (≈ 2.59 µg/mL) | – | 5.6 nM | – | – | – | – | – | –
11 | CC(Nc1cncc(-c2cnc3ccccn23)c1)c1ccc(N2CCCC2)nc1 (centres undefined) | – | – | – | 2600 nM | – | > 75 µL/min/mg | 124 µM (≈ 47.7 µg/mL) | > 75 µL/min/mg | 83 nM | – | – | – | – | – | –
12 | c1ccn2c(-c3cncc(NCc4ccc(N5CCCC5)nc4)c3)cnc2c1 | – | – | – | 720 nM | – | > 75 µL/min/mg | 101 µM (≈ 37.4 µg/mL) | > 75 µL/min/mg | 12 nM | – | – | – | – | – | 90%

Continued, in another order:

Row | logD [1] | efflux ratio at 2 h, 1 µM [2] | hepatocyte CLint [3] | IC50 [4] | Papp at 2 h, 1 µM [5] | microsomal CLint [6] | solubility kinetic at 2 h [7] | microsomal CLint [8] | IC50 [9] | solubility [10] | pKa [11] | solubility [13] | solubility [14] | inhibition [15] | Structure (SMILES) | inhibition at 5 min, 10 µM [12]
13 | 3 | 0.8 | 4 µL/min/1e6 cells | 46 nM | 6.4 ×10⁻⁶ cm/s | – | – | – | – | – | – | – | – | – | COCCOc1ccn2c(-c3cc(NCc4ccc(-c5cnn(C)n5)cc4)ncn3)cnc2c1 | –
14 | – | – | – | 55 nM | – | < 10 µL/min/mg | < 2 µM | < 10 µL/min/mg | – | – | – | – | – | – | COc1ccn2c(-c3cc(NCc4ccc(-c5cnn(C)c5)cc4)ncn3)cnc2c1 | –
15 | 3 | 5 | 9 µL/min/1e6 cells | 75 nM | 21 ×10⁻⁶ cm/s | – | – | – | – | 13 µg/mL (≈ 29.4 µM) | – | – | – | – | Cn1cc(-c2ccc(CNc3cc(-c4cnc5cc(OCCO)ccn45)ncn3)cc2)cn1 | -23%
16 | 2.5 | – | – | 43 nM | – | – | – | – | – | – | – | – | – | – | CN(C)CCCOc1ccn2c(-c3cc(NCc4ccc(-c5cnn(C)c5)cc4)ncn3)cnc2c1 | -86%
17 | 2.8 | 18 | < 4 µL/min/1e6 cells | 76 nM | 7.6 ×10⁻⁶ cm/s | – | – | – | – | 10 µg/mL (≈ 18.3 µM) | 5.8 | – | – | – | Cn1cc(-c2ccc(CNc3cc(-c4cnc5cc(OCCN6CCn7nncc7C6)ccn45)ncn3)cc2)cn1 | -8%
18 | 2.9 | 5.4 | 18 µL/min/1e6 cells | 70 nM | 12 ×10⁻⁶ cm/s | – | – | – | – | – | 9.1 | – | – | – | Cn1cc(-c2ccc(CNc3cc(-c4cnc5cc(OCCN6CCCC6)ccn45)ncn3)cc2)cn1 | -78%
19 | 4 | 0.7 | 8 µL/min/1e6 cells | 78 nM | 9.5 ×10⁻⁶ cm/s | – | – | – | – | 4 µg/mL (≈ 9.7 µM) | – | – | – | – | COc1ccn2c(-c3cc(NCc4ccc(-c5cnn(C)n5)cc4)ncn3)cnc2c1 | –
20 | 4.4 | 4.7 | 16 µL/min/1e6 cells | 93 nM | 3.1 ×10⁻⁶ cm/s | – | – | – | – | 16 µg/mL (≈ 29.2 µM) | 6.9 | – | – | – | Cn1cc(-c2ccc(CNc3cc(-c4cnc5cc(OCCN6CCC(C)(C#N)CC6)ccn45)ncn3)cc2)cn1 | -15%
21 | 4.3 | 1.3 | 10 µL/min/1e6 cells | 73 nM | 1.8 ×10⁻⁶ cm/s | – | – | – | – | 2 µg/mL (≈ 3.61 µM) | 8.3 | – | – | – | Cn1cc(-c2ccc(CNc3cc(-c4cnc5cc(OCCCN6CCC(C)(F)CC6)ccn45)ncn3)cc2)cn1 | -4%
22 | – | – | – | 160 nM | – | 10 µL/min/mg | < 2 µM | < 10 µL/min/mg | 4.6 nM | – | – | – | – | – | COc1ccn2c(-c3cc(NCc4ccc(-c5ccccc5)cc4)ncn3)cnc2c1 | –
23 | 3.8 | 0.9 | 18 µL/min/1e6 cells | 48 nM | 12 ×10⁻⁶ cm/s | 10 µL/min/mg | < 2 µM | > 75 µL/min/mg | – | 2 µg/mL (≈ 4.39 µM) | – | 890 µg/mL (≈ 1950 µM) | 13 µg/mL (≈ 28.5 µM) | Active | COCCOc1ccn2c(-c3cc(NCc4ccc(-c5cnn(C)c5)cc4)ncn3)cnc2c1 | 1%
24 | 1.5 | 15 | 10 µL/min/1e6 cells | 56 nM | 9.5 ×10⁻⁶ cm/s | – | – | – | – | 16 µg/mL (≈ 31.3 µM) | 7.3 | – | – | – | Cn1cc(-c2ccc(CNc3cc(-c4cnc5cc(OCCCNC6COC6)ccn45)ncn3)cc2)cn1 | -19%
25 | 1.9 | 57 | 4 µL/min/1e6 cells | 61 nM | 5.7 ×10⁻⁶ cm/s | – | – | – | – | 97 µg/mL (≈ 202 µM) | 9.5 | – | – | – | CN1CC(COc2ccn3c(-c4cc(NCc5ccc(-c6cnn(C)c6)cc5)ncn4)cnc3c2)C1 | -59%
